Measurements reported in BindingDB's records for doi:10.1016/j.bmcl.2017.10.053 (Vanderbilt University School of Medicine, 2017).

Target: T1, Muscarinic acetylcholine receptor M4 (Homo sapiens, UniProt P08173)
T1 sequence (P08173 whole entry): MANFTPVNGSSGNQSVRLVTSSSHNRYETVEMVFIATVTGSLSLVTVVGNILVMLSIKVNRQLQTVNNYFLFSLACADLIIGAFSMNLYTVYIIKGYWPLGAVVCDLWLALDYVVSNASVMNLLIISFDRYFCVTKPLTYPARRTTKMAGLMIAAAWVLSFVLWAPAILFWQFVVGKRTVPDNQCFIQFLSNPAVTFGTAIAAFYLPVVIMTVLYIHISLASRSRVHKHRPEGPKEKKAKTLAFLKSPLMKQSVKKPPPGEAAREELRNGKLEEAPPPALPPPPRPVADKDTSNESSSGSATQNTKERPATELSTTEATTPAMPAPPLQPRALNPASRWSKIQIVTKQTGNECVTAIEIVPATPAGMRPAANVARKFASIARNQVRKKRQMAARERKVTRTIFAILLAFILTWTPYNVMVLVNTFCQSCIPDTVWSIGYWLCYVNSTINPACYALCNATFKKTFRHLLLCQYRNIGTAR
Assay: Positive allosteric modulation of human M4 receptor expressed in CHO cells co-expressing Gqi5 assessed as increase in acetylcholine-induced calcium mobilization

EC50: 0.324 µM
Compound: Cc1nnc2sc(C(=O)N3CC4(CCN(c5cccnc5)C4)C3)c(N)c2c1C
